Test results from patent US20110251286A1, “Crystalline salts and/or co-crystals of O-desmethyltramadol” (GRUENENTHAL GmbH, priority 2010, published 2011).

Key:
[1] = Release in artificial intestinal juice; assay type: physicochemical; conditions: for release rate compared to the hydrochloride salt: in artificial intestinal juice
Procedure: Investigations on release were carried out in a Sotax AT7 smart release apparatus with UV measurement (Perkin Elmer photometer).
A vessel with Wood apparatus was used (for intrinsic release).
A pressing of 0.5 cm^2 surface area (diameter 8 mm) was produced with a force of 200 N using approximately 100 mg of active ingredient.
Release was carried out in a release medium, which is composed as described below: • Intestinal juice without pancreas powder, pH 6.8 (analogous to Ph. Eur.); 250.0 ml 6.8 g of potassium dihydrogenphosphate R+0.896 g of NaOH+water to 1000.0 ml.
Release was carried out in a release volume of in each case 500±5 ml at a temperature of the release medium of 37±1° C. with a stirring speed of 100±5 rpm.
The content determination was carried out by means of spectroscopic methods (UV spectroscopy, wavelength: 271 nm, cuvette: 10 mm). Sample taking was carried out manually.
In this release experiment, the individual compounds were placed in a permeable bag in an amount in each case calculated on 100 mg of the free base.
The results, expressed in percent of the substance released, are reproduced in the following tables. In this case, the compounds denote: HCl: hydrochloride; A: cinnamate; B: palmitate; C: decanoate; E: hemi-fumarate and F: hemi-sebacate.

[2] = Dynamic vapor sorption (DVS): sorption and desorption of moisture; assay type: physicochemical
Procedure: Investigations on the sorption and desorption of moisture (dynamic vapor sorption, DVS): DVS measurements were carried out on an apparatus of the type DVS 1000 from Porotec. The evaluation of the measurements was carried out using software from Surface Measurement Systems. At a temperature between 23° C. and 26° C., starting from a relative humidity of 50%, within 240 minutes the relative humidity first increased to 90% and then fell to 0%. This cycle was repeated a second time. The DVS charts shown are isothermal recordings (plots) of the change in the mass in % (change in mass—dry) as a function of the desired relative humidity in % (target RH). Correspondingly, the axes of the graphs are marked by ΔM [%] and RH [%]. The measurement curves of the first sorption are designated by 1-S, the subsequent first desorption by 1-D, the second sorption by 2-S and the second desorption by 2-D. Advantageously, mass changes between the sorption and desorption phase are as low as possible.

[3] = Determination of equilibrium solubilities in aqueous solutions at various pHs; conditions: thermodynamic from solid
Procedure: The equilibrium solubilities of the compounds investigated were determined in aqueous solutions at various pHs and the pH-dependent solubility profile and the solubilities at different pHs were compared here. In this case, the content determination was carried out by means of capillary electrophoresis.

## CN(C)CC1CCCCC1(O)c1cccc(O)c1.CN(C)CC1CCCCC1(O)c1cccc(O)c1.O=C(O)CCCCCCCCC(=O)O (stereo not drawn) [hemi-sebacate]
[1]
  release rate compared to the hydrochloride salt: decreased release rates compared to the hydrochloride salt
[2]; DVS 1st cycle, RH 0.0%
  ΔM Desorption: 0.0000%
[2]; DVS 1st cycle, RH 10.0%
  ΔM Desorption: 0.0235%
[2]; DVS 1st cycle, RH 20.0%
  ΔM Desorption: 0.0308%
[2]; DVS 1st cycle, RH 30.0%
  ΔM Desorption: 0.0323%
[2]; DVS 1st cycle, RH 40.0%
  ΔM Desorption: 0.0338%
[2]; DVS 1st cycle, RH 50.0%
  ΔM Desorption: 0.0323%
  ΔM Hysteresis: −0.0382%
  ΔM Sorption: 0.0704%
[2]; DVS 1st cycle, RH 60.0%
  ΔM Desorption: 0.0293%
  ΔM Hysteresis: −0.0396%
  ΔM Sorption: 0.0690%
[2]; DVS 1st cycle, RH 70.0%
  ΔM Desorption: 0.0220%
  ΔM Hysteresis: −0.0132%
  ΔM Sorption: 0.0352%
[2]; DVS 1st cycle, RH 80.0%
  ΔM Desorption: 0.0088%
  ΔM Hysteresis: 0.0205%
  ΔM Sorption: −0.0117%
[2]; DVS 1st cycle, RH 90.0%
  ΔM Desorption: −0.0499%
  ΔM Sorption: −0.0499%
[2]; DVS 2nd cycle, RH 0.0%
  ΔM Desorption: 0.1585%
  ΔM Sorption: 0.0000%
[2]; DVS 2nd cycle, RH 10.0%
  ΔM Desorption: 0.1790%
  ΔM Hysteresis: 0.1438%
  ΔM Sorption: 0.0352%
[2]; DVS 2nd cycle, RH 20.0%
  ΔM Desorption: 0.1834%
  ΔM Hysteresis: 0.1291%
  ΔM Sorption: 0.0543%
[2]; DVS 2nd cycle, RH 30.0%
  ΔM Desorption: 0.1878%
  ΔM Hysteresis: 0.1174%
  ΔM Sorption: 0.0704%
[2]; DVS 2nd cycle, RH 40.0%
  ΔM Desorption: 0.1922%
  ΔM Hysteresis: 0.1042%
  ΔM Sorption: 0.0880%
[2]; DVS 2nd cycle, RH 50.0%
  ΔM Desorption: 0.1849%
  ΔM Hysteresis: 0.0880%
  ΔM Sorption: 0.0968%
[2]; DVS 2nd cycle, RH 60.0%
  ΔM Desorption: 0.1761%
  ΔM Hysteresis: 0.0704%
  ΔM Sorption: 0.1057%
[2]; DVS 2nd cycle, RH 70.0%
  ΔM Desorption: 0.1629%
  ΔM Hysteresis: 0.0719%
  ΔM Sorption: 0.0910%
[2]; DVS 2nd cycle, RH 80.0%
  ΔM Desorption: 0.1350%
  ΔM Hysteresis: 0.0616%
  ΔM Sorption: 0.0734%
[2]; DVS 2nd cycle, RH 90.0%
  ΔM Desorption: 0.0484%
  ΔM Sorption: 0.0484%
[2]; DVS 3rd cycle (partial), RH 0.0%
  ΔM Sorption: 0.1585%
[2]; DVS 3rd cycle (partial), RH 10.0%
  ΔM Sorption: 0.1937%
[2]; DVS 3rd cycle (partial), RH 20.0%
  ΔM Sorption: 0.2113%
[2]; DVS 3rd cycle (partial), RH 30.0%
  ΔM Sorption: 0.2245%
[2]; DVS 3rd cycle (partial), RH 40.0%
  ΔM Sorption: 0.2377%
[2]; DVS 3rd cycle (partial), RH 50.0%
  ΔM Sorption: 0.2465%

## CN(C)C[C@H]1CCCC[C@]1(O)c1cccc(O)c1.Cl [hydrochloride, (+)-(1R,2R)-3-[2-(dimethylamino)methyl-1-hydroxycyclohexyl]phenol hydrochloride]
[1]; after two to 4 minutes, artificial intestinal juice pH 6.8, 37 °C
  substance passed into the artificial intestinal fluid: ~100%
[3]; aqueous with cosolvent or surfactant or cyclodextrin
  solubility thermodynamic: 1090 mM
[3]; pH 1.4, simulated gastric fluid
  solubility thermodynamic: 582 mM
[3]; pH 4.3, aqueous buffer
  solubility thermodynamic: 666 mM
[3]; pH 6.8, aqueous buffer
  solubility thermodynamic: 698 mM
[3]; pH 7.4, aqueous buffer
  solubility thermodynamic: 867 mM
[3]; pH 11, aqueous buffer
  solubility thermodynamic: 979 mM
[3]; water
  solubility thermodynamic: 983 mM

## palmitate
[1]; Experiments B-1 and B-2
  release behaviour in artificial intestinal juice: more intensely prolonged release
[1]
  release rate compared to the hydrochloride salt: decreased release rates compared to the hydrochloride salt
[2]; 1st cycle, RH 0.0 %
  ΔM Desorption: 0.0000%
[2]; 1st cycle, RH 10.0 %
  ΔM Desorption: 0.0083%
[2]; 1st cycle, RH 20.0 %
  ΔM Desorption: 0.0148%
[2]; 1st cycle, RH 30.0 %
  ΔM Desorption: 0.0234%
[2]; 1st cycle, RH 40.0 %
  ΔM Desorption: 0.0353%
[2]; 1st cycle, RH 50.0 %
  ΔM Desorption: 0.0472%
  ΔM Hysteresis: 0.0027%
  ΔM Sorption: 0.0445%
[2]; 1st cycle, RH 60.0 %
  ΔM Desorption: 0.0896%
  ΔM Hysteresis: 0.0374%
  ΔM Sorption: 0.0522%
[2]; 1st cycle, RH 70.0 %
  ΔM Desorption: 0.1139%
  ΔM Hysteresis: 0.0412%
  ΔM Sorption: 0.0727%
[2]; 1st cycle, RH 80.0 %
  ΔM Desorption: 0.1406%
  ΔM Hysteresis: 0.0347%
  ΔM Sorption: 0.1059%
[2]; 1st cycle, RH 90.0 %
  ΔM Desorption: 0.1531%
  ΔM Sorption: 0.1531%
[2]; 2nd cycle, RH 0.0 %
  ΔM Desorption: 0.0172%
  ΔM Sorption: 0.0000%
[2]; 2nd cycle, RH 10.0 %
  ΔM Desorption: 0.0303%
  ΔM Hysteresis: 0.0202%
  ΔM Sorption: 0.0101%
[2]; 2nd cycle, RH 20.0 %
  ΔM Desorption: 0.0421%
  ΔM Hysteresis: 0.0211%
  ΔM Sorption: 0.0211%
[2]; 2nd cycle, RH 30.0 %
  ΔM Desorption: 0.0552%
  ΔM Hysteresis: 0.0225%
  ΔM Sorption: 0.0326%
[2]; 2nd cycle, RH 40.0 %
  ΔM Desorption: 0.0679%
  ΔM Hysteresis: 0.0237%
  ΔM Sorption: 0.0442%
[2]; 2nd cycle, RH 50.0 %
  ΔM Desorption: 0.0837%
  ΔM Hysteresis: 0.0234%
  ΔM Sorption: 0.0602%
[2]; 2nd cycle, RH 60.0 %
  ΔM Desorption: 0.1344%
  ΔM Hysteresis: 0.0573%
  ΔM Sorption: 0.0771%
[2]; 2nd cycle, RH 70.0 %
  ΔM Desorption: 0.1640%
  ΔM Hysteresis: 0.0739%
  ΔM Sorption: 0.0902%
[2]; 2nd cycle, RH 80.0 %
  ΔM Desorption: 0.1827%
  ΔM Hysteresis: 0.0495%
  ΔM Sorption: 0.1332%
[2]; 2nd cycle, RH 90.0 %
  ΔM Desorption: 0.1771%
  ΔM Sorption: 0.1771%
[2]; 3rd cycle, RH 0.0 %
  ΔM Sorption: 0.0172%
[2]; 3rd cycle, RH 10.0 %
  ΔM Sorption: 0.0231%
[2]; 3rd cycle, RH 20.0 %
  ΔM Sorption: 0.0306%
[2]; 3rd cycle, RH 30.0 %
  ΔM Sorption: 0.0392%
[2]; 3rd cycle, RH 40.0 %
  ΔM Sorption: 0.0498%
[2]; 3rd cycle, RH 50.0 %
  ΔM Sorption: 0.0650%
